The values that follow come from ChEMBL document CHEMBL1139919, “Beta-substituted cyclohexanecarboxamide cathepsin K inhibitors: modification of the 1,2-disubstituted aromatic core” (Bioorg Med Chem Lett, 2007).

A value given as a limit tells only on which side of the number the result lay.

The species entered for series [1] is Oryctolagus cuniculus. In words: Selectivity for IC50 of new Zealand white […] bone resorption over IC50 rabbit cathepsin K. The series is classed as functional.
The species named for series [2] is Homo sapiens. In words: Selectivity for human cathepsin K over human cathepsin L.
Series [3] is filed under the species Oryctolagus cuniculus. In words: Inhibition of bone resorption in New Zealand white rabbit by crosslaps ELISA assay. The format is functional, organism-based. On the technique in general: ELISA stands for enzyme-linked immunosorbent assay.
The target in series [4] is Cathepsin K (Homo sapiens, UniProt P43235). In words: Inhibition of humaized rabbit cathepsin K.
The species named for series [5] is Homo sapiens. As to the kind of experiment: Selectivity for human cathepsin K over human cathepsin S.
The species entered for series [6] is Homo sapiens. In words: Selectivity for human cathepsin K over human cathepsin B.
The target in series [7] is T1, Cathepsin K (Oryctolagus cuniculus, UniProt P43236).
T1 sequence (P43236 whole entry): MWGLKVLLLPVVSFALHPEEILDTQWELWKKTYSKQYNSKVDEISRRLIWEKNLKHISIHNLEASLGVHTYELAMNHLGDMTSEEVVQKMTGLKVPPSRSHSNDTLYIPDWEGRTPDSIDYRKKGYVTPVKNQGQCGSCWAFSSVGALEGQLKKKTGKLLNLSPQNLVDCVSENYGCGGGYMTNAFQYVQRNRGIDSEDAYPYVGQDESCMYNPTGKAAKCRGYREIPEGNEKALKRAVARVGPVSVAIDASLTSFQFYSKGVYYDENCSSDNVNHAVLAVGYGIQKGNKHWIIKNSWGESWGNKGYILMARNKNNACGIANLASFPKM
As to the kind of experiment: Inhibition of rabbit cathepsin K.

Series [8] in a line: AUC in rat at 10 mg/kg, po or 5 mg/kg, iv. The series is classed as ADME, organism-based. Conditions: plasma.
A short description of series [9]: Oral bioavailability in rat at 10 mg/kg. The series is classed as ADME, organism-based. The following applies: in vivo.
The nature of series [10]: Oral bioavailability in rat at 5 mg/kg. The format is ADME, organism-based. The following applies: in vivo.
The nature of series [11]: AUC in rat at 5 mg/kg, po or 1 mg/kg, iv. The format is ADME, organism-based. Conditions: plasma.
A short description of series [12]: Half life in rat at 5 mg/kg, po or 1 mg/kg, iv. The series is classed as ADME, organism-based. Conditions: in vivo.
Series [13] can be described thus: Half life in rat at 10 mg/kg, po or 5 mg/kg, iv. The series is classed as ADME, organism-based. Conditions: in vivo.

Consider `CSc1ccc(-c2c(C3CCC(F)(F)CC3C(=O)NCC#N)cc[nH]c2=O)cc1` (racemic), for which, in the series listed under Oryctolagus cuniculus [1], the Ratio IC50 stood at 14. The results for the Selectivity ratio in the series filed under Homo sapiens [2], in the series listed under Homo sapiens [5] and in the series listed under Homo sapiens [6] were 430, 310 and > 1250, respectively. Also, the IC50 in the series listed under Oryctolagus cuniculus [3] (Oryctolagus cuniculus) is 84 nM; against Cathepsin K [4] it was 8 nM; against Cathepsin K [7], 6 nM.
Turning to `CSc1ccc(-c2c(C3CCC(F)(F)CC3C(=O)NCC#N)nnn2Cc2ccccc2)cc1` (racemic), the Ratio IC50 in the series listed under Oryctolagus cuniculus [1] was found to be 4. The Selectivity ratio in the series listed under Homo sapiens [2] worked out at 350; in the series listed under Homo sapiens [5] it was 180; in the series filed under Homo sapiens [6] it was 1400. In addition, the IC50 came to 33 nM in the series filed under Oryctolagus cuniculus [3] (Oryctolagus cuniculus), 2 nM at Cathepsin K [4] and 9 nM against Cathepsin K [7].
As for `CSc1ccc(-c2ccccc2C2CCC(F)(F)CC2C(=O)NCC#N)cc1` (racemic; form 1) [listing 1 of 2 here], the Ratio IC50 in the series filed under Oryctolagus cuniculus [1] came out at 53. Moreover, the Selectivity ratio was 780 in the series filed under Homo sapiens [2], 940 in the series filed under Homo sapiens [5] and > 36000 in the series listed under Homo sapiens [6].
Take `CSc1ccc(-c2ccccc2C2CCC(F)(F)CC2C(=O)NCC#N)cc1` (racemic; form 1) [listing 2 of 2 here]: the figures for the IC50 in the series listed under Oryctolagus cuniculus [3], at Cathepsin K [4] and against Cathepsin K [7] were 16 nM, 0.3 nM and 0.3 nM, respectively. In series [8], this molecule yielded an area under the curve (AUC) of 18.5 µM·h. The molecule also came in with a bioavailability in series [9] of 39%.
For `CSc1ccc(-c2ccccc2C2CCC(F)(F)CC2C(=O)NCC#N)cc1` (racemic; form 2) [listing 1 of 2 here], the Ratio IC50 in the series listed under Oryctolagus cuniculus [1] turned out to be 76. For the same molecule, the Selectivity ratio in the series listed under Homo sapiens [2] was 880; in the series listed under Homo sapiens [5] it was 1100; in the series listed under Homo sapiens [6] it was > 120000.
Take `CSc1ccc(-c2c[nH]c(=O)cc2C2CCC(F)(F)CC2C(=O)NCC#N)cc1` (racemic): in the series listed under Oryctolagus cuniculus [1], the Ratio IC50 was found to be 4. In addition, the Selectivity ratio in the series listed under Homo sapiens [2] came out at 410; in the series filed under Homo sapiens [5], 540; in the series listed under Homo sapiens [6], 1200. For the same molecule, the half-maximal inhibitory concentration (IC50) in the series filed under Oryctolagus cuniculus [3] (Oryctolagus cuniculus) was 20 nM; against Cathepsin K [4] it was 4 nM; against Cathepsin K [7], 5 nM.
As for `N#CCNC(=O)C1CC(F)(F)CCC1c1cnccc1-c1ccc(SCF)cc1` (racemic), the Ratio IC50 in the series listed under Oryctolagus cuniculus [1] came out at 29. The results for the Selectivity ratio in the series listed under Homo sapiens [2], in the series listed under Homo sapiens [5] and in the series filed under Homo sapiens [6] were 260, 450 and > 5000, respectively. Moreover, the results for the IC50 in the series listed under Oryctolagus cuniculus [3] (Oryctolagus cuniculus), against Cathepsin K [4] and at Cathepsin K [7] were 58 nM, 2 nM and 2 nM, respectively.
As for `CSc1ccc(-c2c[n+]([O-])ccc2C2CCC(F)(F)CC2C(=O)NCC#N)cc1` (racemic), the Ratio IC50 in the series listed under Oryctolagus cuniculus [1] was 15. For the same molecule, the Selectivity ratio in the series listed under Homo sapiens [2] was 460; in the series listed under Homo sapiens [5], 480; in the series listed under Homo sapiens [6], > 2000. In addition, the IC50 in the series listed under Oryctolagus cuniculus [3] (Oryctolagus cuniculus) came out at 75 nM; against Cathepsin K [4], 5 nM; on Cathepsin K [7], 5 nM.
As to `CSc1ccc(-c2cnccc2C2CCC(F)(F)CC2C(=O)NCC#N)cc1` (racemic), the Ratio IC50 in the series listed under Oryctolagus cuniculus [1] came out at 18. In series [10], this molecule displayed a bioavailability of 65%. Also, the Selectivity ratio in the series filed under Homo sapiens [2] is 520; in the series listed under Homo sapiens [5], 720; in the series listed under Homo sapiens [6] it was > 10000. Also, the IC50 in the series filed under Oryctolagus cuniculus [3] (Oryctolagus cuniculus) came out at 18 nM; on Cathepsin K [4], 1 nM; on Cathepsin K [7] it was 1 nM. In [11], the area under the curve (AUC) was 8.6 µM·h. This molecule also had a half-life in series [12] of 1 h.
`CSc1ccc(-c2cn(C)nc2C2CCC(F)(F)CC2C(=O)NCC#N)cc1` (racemic): the Ratio IC50 in the series listed under Oryctolagus cuniculus [1] turned out to be 103. Besides, the Selectivity ratio in the series filed under Homo sapiens [2] worked out at 730; in the series listed under Homo sapiens [5], 490; in the series filed under Homo sapiens [6], 9500. Further, the half-inhibitory concentration (IC50) came to 41 nM in the series filed under Oryctolagus cuniculus [3] (Oryctolagus cuniculus), 0.4 nM against Cathepsin K [4] and 0.4 nM at Cathepsin K [7]. The same molecule gave an AUC in [8] of 28.9 µM·h. In series [13], the half-life was 4.6 h. The molecule further came in with a bioavailability in series [9] of 100%.
For the molecule `CSc1ccc(-c2ccccc2C2CCC(F)(F)CC2C(=O)NCC#N)cc1` (racemic; form 2) [listing 2 of 2 here], the half-maximal inhibitory concentration (IC50) in the series listed under Oryctolagus cuniculus [3] was determined as 38 nM; on Cathepsin K [4], 0.5 nM.
`CSc1ccc(-c2ncccc2C2CCC(F)(F)CC2C(=O)NCC#N)cc1` (racemic): the Ratio IC50 in the series filed under Oryctolagus cuniculus [1] came to 10. Further, the Selectivity ratio in the series filed under Homo sapiens [2] was 540; in the series listed under Homo sapiens [5], 850; in the series filed under Homo sapiens [6], > 10000. Moreover, the values for the IC50 in the series filed under Oryctolagus cuniculus [3] (Oryctolagus cuniculus), at Cathepsin K [4] and against Cathepsin K [7] were 10 nM, 1 nM and 1 nM, respectively.
For `CSc1ccc(-c2nc(C)sc2C2CCC(F)(F)CC2C(=O)NCC#N)cc1` (racemic), in the series listed under Oryctolagus cuniculus [1], the Ratio IC50 turned out to be 170. Further, the Selectivity ratio in the series filed under Homo sapiens [2] was determined as 270; in the series listed under Homo sapiens [5], 380; in the series filed under Homo sapiens [6] it was 15000. Moreover, the half-maximal inhibitory concentration (IC50) in the series listed under Oryctolagus cuniculus [3] (Oryctolagus cuniculus) is 17 nM; against Cathepsin K [4], 0.2 nM; on Cathepsin K [7] it was 0.1 nM.

What is called IC50 is the concentration that gives 50% inhibition. Low readings indicate greater potency in that assay, high ones weaker potency in that assay. The AUC is concentration integrated over time. Higher therefore signals more exposure. Broadly, the bioavailability is dose-corrected exposure relative to a reference, in per cent. Low readings indicate little systemic uptake, high ones much systemic uptake. The half-life is the time needed for the level to fall by half in the phase considered. Low values mean rapid decline, high ones slow decline.
